In ChEMBL document CHEMBL4130587, “Chemical Compounds as Inhibitors of Kinase Activity for the Treatment of Cancer and COPD” (ACS Med Chem Lett, 2017):

Assays:
[1] = target: Phosphatidylinositol 4,5-bisphosphate 3-kinase catalytic subunit gamma isoform (Homo sapiens, UniProt P48736); experiment: Inhibition of GST-tagged PI3Kgamma […] (unknown origin) using PIP2 as subtrate after 1 hr in presence of biotin-labeled PIP3 by TR-FRET assay
[2] = target: Phosphatidylinositol 4,5-bisphosphate 3-kinase catalytic subunit alpha isoform (Homo sapiens, UniProt P42336); experiment: Inhibition of GST-tagged PI3Kalpha […] (unknown origin) using PIP2 as subtrate after 1 hr in presence of biotin-labeled PIP3 by TR-FRET assay
[3] = target: Phosphatidylinositol 4,5-bisphosphate 3-kinase catalytic subunit beta isoform (Homo sapiens, UniProt P42338); experiment: Inhibition of GST-tagged PI3Kbeta […] (unknown origin) using PIP2 as subtrate after 1 hr in presence of biotin-labeled PIP3 by TR-FRET assay
[4] = target: T1, Phosphatidylinositol 4,5-bisphosphate 3-kinase catalytic subunit delta isoform (Homo sapiens, UniProt O00329); experiment: Inhibition of GST-tagged PI3Kdelta […] (unknown origin) using PIP2 as subtrate after 1 hr in presence of biotin-labeled PIP3 by TR-FRET assay
T1 sequence (O00329 whole entry): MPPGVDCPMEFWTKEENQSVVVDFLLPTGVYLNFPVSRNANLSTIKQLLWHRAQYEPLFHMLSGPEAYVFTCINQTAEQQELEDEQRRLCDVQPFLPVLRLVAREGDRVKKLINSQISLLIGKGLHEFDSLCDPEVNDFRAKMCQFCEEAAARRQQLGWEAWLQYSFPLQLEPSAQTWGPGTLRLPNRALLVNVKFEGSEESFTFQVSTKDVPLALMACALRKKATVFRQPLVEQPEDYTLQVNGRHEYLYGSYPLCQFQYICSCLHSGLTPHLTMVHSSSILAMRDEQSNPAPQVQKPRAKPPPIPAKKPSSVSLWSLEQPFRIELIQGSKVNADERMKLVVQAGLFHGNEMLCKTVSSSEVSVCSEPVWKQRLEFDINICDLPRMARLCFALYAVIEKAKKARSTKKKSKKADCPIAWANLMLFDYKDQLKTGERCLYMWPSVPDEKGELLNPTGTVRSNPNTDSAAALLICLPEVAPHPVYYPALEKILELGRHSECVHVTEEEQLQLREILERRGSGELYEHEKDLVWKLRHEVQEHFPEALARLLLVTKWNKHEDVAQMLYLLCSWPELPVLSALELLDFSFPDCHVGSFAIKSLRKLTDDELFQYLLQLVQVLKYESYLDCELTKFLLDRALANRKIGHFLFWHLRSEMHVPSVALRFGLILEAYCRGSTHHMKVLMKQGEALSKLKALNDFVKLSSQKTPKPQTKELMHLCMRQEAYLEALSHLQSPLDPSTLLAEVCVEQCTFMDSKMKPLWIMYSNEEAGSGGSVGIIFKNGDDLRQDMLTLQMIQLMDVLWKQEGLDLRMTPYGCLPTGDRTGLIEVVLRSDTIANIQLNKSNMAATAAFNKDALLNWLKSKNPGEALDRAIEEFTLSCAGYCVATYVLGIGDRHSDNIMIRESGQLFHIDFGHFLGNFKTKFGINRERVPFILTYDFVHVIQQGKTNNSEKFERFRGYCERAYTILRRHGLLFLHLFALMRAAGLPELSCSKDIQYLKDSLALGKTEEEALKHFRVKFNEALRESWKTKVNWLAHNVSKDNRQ

Measured: IC50

Sequence of Phosphatidylinositol 4,5-bisphosphate 3-kinase catalytic subunit alpha isoform (P42336 whole entry, canonical isoform): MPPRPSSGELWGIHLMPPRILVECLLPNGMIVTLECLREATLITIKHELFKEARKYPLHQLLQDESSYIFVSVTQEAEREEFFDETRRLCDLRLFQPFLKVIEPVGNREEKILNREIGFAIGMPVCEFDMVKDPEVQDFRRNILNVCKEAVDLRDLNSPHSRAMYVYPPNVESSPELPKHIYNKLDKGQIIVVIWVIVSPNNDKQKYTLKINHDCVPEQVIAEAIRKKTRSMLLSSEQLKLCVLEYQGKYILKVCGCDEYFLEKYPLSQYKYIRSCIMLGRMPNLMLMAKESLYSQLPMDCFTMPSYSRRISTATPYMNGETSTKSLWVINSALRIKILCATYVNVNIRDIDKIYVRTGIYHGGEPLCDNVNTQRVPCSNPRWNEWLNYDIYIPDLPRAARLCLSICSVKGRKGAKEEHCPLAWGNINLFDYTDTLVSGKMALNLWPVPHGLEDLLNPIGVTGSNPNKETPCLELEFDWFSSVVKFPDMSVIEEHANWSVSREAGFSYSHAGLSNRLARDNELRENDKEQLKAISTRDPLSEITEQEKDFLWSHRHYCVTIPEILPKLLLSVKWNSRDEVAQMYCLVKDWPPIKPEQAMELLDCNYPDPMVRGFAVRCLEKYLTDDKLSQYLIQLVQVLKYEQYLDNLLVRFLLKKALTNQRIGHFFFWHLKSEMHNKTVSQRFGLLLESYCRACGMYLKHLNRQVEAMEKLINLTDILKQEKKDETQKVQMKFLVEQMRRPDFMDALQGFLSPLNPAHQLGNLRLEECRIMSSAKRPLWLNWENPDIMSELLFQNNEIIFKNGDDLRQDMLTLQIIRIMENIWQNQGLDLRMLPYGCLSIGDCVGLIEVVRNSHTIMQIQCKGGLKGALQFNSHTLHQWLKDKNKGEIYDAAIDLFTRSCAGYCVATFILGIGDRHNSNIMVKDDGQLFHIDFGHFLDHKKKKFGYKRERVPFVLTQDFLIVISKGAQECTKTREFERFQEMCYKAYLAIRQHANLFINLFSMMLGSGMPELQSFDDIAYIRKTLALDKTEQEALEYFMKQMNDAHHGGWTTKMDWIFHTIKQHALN
Sequence of Phosphatidylinositol 4,5-bisphosphate 3-kinase catalytic subunit beta isoform (P42338 whole entry, canonical isoform): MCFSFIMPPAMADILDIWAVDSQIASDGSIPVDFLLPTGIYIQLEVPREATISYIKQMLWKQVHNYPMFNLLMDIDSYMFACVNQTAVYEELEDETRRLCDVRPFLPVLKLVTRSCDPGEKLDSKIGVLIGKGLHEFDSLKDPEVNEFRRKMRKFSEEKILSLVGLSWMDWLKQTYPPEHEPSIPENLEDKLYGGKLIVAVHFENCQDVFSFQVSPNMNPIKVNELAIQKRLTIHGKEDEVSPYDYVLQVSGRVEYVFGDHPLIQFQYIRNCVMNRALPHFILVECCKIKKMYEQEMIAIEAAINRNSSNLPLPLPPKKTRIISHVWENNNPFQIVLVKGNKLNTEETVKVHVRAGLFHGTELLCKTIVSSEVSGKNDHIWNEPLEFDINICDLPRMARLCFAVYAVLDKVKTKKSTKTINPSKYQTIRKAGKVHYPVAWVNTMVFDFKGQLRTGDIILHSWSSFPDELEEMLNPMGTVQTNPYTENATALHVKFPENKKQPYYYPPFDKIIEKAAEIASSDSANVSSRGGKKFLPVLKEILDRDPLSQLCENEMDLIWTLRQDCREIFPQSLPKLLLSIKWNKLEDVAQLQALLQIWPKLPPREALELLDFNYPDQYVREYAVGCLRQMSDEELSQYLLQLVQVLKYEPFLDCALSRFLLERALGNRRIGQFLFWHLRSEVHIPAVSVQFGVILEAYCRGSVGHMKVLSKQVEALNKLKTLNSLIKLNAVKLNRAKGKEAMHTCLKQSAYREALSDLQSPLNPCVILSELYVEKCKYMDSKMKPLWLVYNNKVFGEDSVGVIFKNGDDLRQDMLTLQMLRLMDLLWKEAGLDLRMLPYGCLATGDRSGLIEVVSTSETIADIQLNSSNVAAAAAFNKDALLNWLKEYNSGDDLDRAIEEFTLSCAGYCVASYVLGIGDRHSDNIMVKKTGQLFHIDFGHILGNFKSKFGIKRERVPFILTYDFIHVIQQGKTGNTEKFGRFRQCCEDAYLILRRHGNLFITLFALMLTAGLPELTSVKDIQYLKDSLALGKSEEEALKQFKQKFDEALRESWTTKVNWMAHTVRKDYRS
Sequence of Phosphatidylinositol 4,5-bisphosphate 3-kinase catalytic subunit gamma isoform (P48736 whole entry, canonical isoform): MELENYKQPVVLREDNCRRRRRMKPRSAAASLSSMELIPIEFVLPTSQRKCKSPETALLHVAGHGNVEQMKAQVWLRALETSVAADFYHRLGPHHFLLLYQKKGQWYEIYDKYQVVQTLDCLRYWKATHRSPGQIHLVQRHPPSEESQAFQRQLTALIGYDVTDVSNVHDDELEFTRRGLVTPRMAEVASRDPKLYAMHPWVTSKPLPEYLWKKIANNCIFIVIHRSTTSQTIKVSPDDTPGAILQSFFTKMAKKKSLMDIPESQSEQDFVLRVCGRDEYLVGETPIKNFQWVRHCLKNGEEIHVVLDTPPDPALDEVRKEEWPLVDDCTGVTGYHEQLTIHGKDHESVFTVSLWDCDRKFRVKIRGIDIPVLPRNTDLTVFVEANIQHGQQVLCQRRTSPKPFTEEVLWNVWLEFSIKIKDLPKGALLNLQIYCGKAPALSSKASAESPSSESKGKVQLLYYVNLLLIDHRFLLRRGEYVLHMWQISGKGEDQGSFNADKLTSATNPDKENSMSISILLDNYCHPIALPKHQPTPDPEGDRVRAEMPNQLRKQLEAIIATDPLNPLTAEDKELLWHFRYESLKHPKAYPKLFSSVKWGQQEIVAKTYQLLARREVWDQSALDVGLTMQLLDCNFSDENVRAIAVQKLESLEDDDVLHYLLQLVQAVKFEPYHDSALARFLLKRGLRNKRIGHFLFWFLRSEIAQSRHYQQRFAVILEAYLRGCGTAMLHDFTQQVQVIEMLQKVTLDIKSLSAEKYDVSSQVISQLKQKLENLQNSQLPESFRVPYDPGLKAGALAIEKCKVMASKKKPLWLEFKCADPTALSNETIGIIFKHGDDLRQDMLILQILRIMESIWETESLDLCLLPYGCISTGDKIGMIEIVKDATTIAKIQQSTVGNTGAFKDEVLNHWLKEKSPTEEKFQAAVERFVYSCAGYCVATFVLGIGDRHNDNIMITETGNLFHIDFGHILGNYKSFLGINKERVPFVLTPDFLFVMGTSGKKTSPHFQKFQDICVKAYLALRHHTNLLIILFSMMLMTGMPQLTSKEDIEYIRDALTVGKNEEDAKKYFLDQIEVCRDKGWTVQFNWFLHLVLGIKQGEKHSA

COc1ncc(N2CCOCC2)cc1S(=O)(=O)Nc1ccnc(-c2ccc(CN3CCN(C4CCC4)CC3)cc2F)c1
≤ 10 µM: all assays above

CC(C)N1CCN(Cc2ccc(-c3cc(NS(=O)(=O)c4cc(N5CCOCC5)cnc4N(C)C)ccn3)c(F)c2)CC1
≤ 10 µM: all assays above

CCC(C)N1CCN(Cc2ccc(-c3cc(NS(=O)(=O)c4cc(N5CCOCC5)cnc4OC)ccn3)cc2)CC1 (centres undefined)
≤ 10 µM: all assays above

COCCN1CCN(Cc2ccc(-c3cc(NS(=O)(=O)c4cc(N5CCOCC5)cnc4OC)ccn3)c(F)c2)CC1
≤ 10 µM: all assays above

COc1ncc(N2CCOCC2)cc1S(=O)(=O)Nc1ccnc(-c2ccc(CN3CCC(C)C3)cc2F)c1 (centres undefined)
≤ 10 µM: all assays above

CCOC(=O)CN(c1ccnc(-c2ccc(CN3CCN(C(C)C)CC3)cc2F)c1)S(=O)(=O)c1cc(N2CCOCC2)cnc1OC
≤ 10 µM: all assays above

CCOc1ncc(N2CCOCC2)cc1S(=O)(=O)Nc1ccnc(-c2ccc(CN3C[C@@H](C)O[C@@H](C)C3)cc2F)c1
≤ 10 µM: all assays above

COc1ncc(N2CCOCC2)cc1S(=O)(=O)N(c1ccnc(-c2ccc(CN3CCN(C(C)C)CC3)cc2F)c1)C(C)C
≤ 10 µM: all assays above

COc1ncc(N2CCOCC2)cc1S(=O)(=O)Nc1ccnc(-c2ccc(CN3CCN(C(C)(C)C)CC3)cc2)c1
≤ 10 µM: all assays above

COc1ncc(N2CCOCC2)cc1S(=O)(=O)Nc1ccnc(-c2ccc(CN3C[C@@H](C)O[C@@H](C)C3)cc2)c1
≤ 10 µM: all assays above

CN(C)c1ncc(N2CCOCC2)cc1S(=O)(=O)Nc1ccnc(-c2ccc(CN3CCN(C(C)(C)C)CC3)cc2F)c1
≤ 10 µM: all assays above

COc1ncc(N2CCOCC2)cc1S(=O)(=O)Nc1ccnc(-c2ccc(CN3CCCCC3)cc2F)c1
≤ 10 µM: all assays above

COc1ncc(N2CCOCC2)cc1S(=O)(=O)Nc1ccnc(-c2ccc(CN3CCN(C(C)C)CC3)cc2F)c1
≤ 10 µM: all assays above

COc1ncc(N2CCOCC2)cc1S(=O)(=O)Nc1ccnc(-c2cc(Cl)c(CN3CCN(C(C)C)CC3)cc2F)c1
≤ 10 µM: all assays above

CCN(c1ccnc(-c2ccc(CN3CCN(C(C)C)CC3)cc2F)c1)S(=O)(=O)c1cc(N2CCOCC2)cnc1OC
≤ 10 µM: all assays above

COc1ncc(N2CCOCC2)cc1S(=O)(=O)Nc1ccnc(-c2c(F)cc(CN3CCN(C(C)C)CC3)cc2F)c1
≤ 10 µM: all assays above

COc1ncc(N2CCOCC2)cc1S(=O)(=O)Nc1ccnc(-c2ccc(CN3CCN(C(C)C)CC3)cc2)c1
≤ 10 µM: all assays above

COc1ncc(N2CCOCC2)cc1S(=O)(=O)Nc1ccnc(-c2ccc(CN3CCNCC3)cc2F)c1
≤ 10 µM: all assays above

COc1ncc(N2CCOCC2)cc1S(=O)(=O)Nc1ccnc(-c2ccc(CN3CCCC3C)cc2F)c1 (centres undefined)
≤ 10 µM: all assays above

CCCN(c1ccnc(-c2ccc(CN3CCN(C(C)C)CC3)cc2F)c1)S(=O)(=O)c1cc(N2CCOCC2)cnc1OC
≤ 10 µM: all assays above

COc1ncc(N2CCOCC2)cc1S(=O)(=O)Nc1ccnc(-c2ccc(CN3CCN(C(C)C)CC3)c(F)c2)c1
≤ 10 µM: all assays above

COc1ncc(N2CCOCC2)cc1S(=O)(=O)Nc1ccnc(-c2ccc(CN3CCOCC3)cc2)c1
≤ 10 µM: all assays above

COc1ncc(N2CCOCC2)cc1S(=O)(=O)Nc1ccnc(-c2cc(F)c(CN3CCN(C(C)C)CC3)cc2F)c1
≤ 10 µM: all assays above

COc1ncc(N2CCOCC2)cc1S(=O)(=O)Nc1ccnc(-c2ccc(CN3CCC(C(C)(C)O)CC3)cc2F)c1
≤ 10 µM: all assays above

COc1ncc(N2CCOCC2)cc1S(=O)(=O)N(COC(=O)C(C)(C)C)c1ccnc(-c2ccc(CN3CCN(C(C)C)CC3)cc2F)c1
≤ 10 µM: all assays above

COc1ncc(N2CCOCC2)cc1S(=O)(=O)Nc1ccnc(-c2ccc(CN3CCN(C(C)(C)C)CC3)cc2F)c1
≤ 10 µM: all assays above

COc1ncc(N2CCOCC2)cc1S(=O)(=O)Nc1ccnc(-c2ccc(CN3C[C@@H](C)O[C@@H](C)C3)cc2F)c1
≤ 10 µM: all assays above

COc1ncc(N2CCOCC2)cc1S(=O)(=O)N(C)c1ccnc(-c2ccc(CN3CCN(C(C)C)CC3)cc2F)c1
≤ 10 µM: all assays above

COc1ncc(N2CCOCC2)cc1S(=O)(=O)N(C)c1ccnc(-c2ccc(CN3CCN(C(C)(C)C)CC3)cc2F)c1
≤ 10 µM: all assays above

COc1ncc(N2CCOCC2)cc1S(=O)(=O)Nc1ccnc(-c2ccc(CN3CCN(C4CCC4)CC3)cc2)c1
≤ 10 µM: all assays above

COc1ncc(N2CCOCC2)cc1S(=O)(=O)Nc1ccnc(-c2ccc(CN(C)C)cc2)c1
≤ 10 µM: all assays above
